From PubChem BioAssay AID2060492 (Molecular Pharmacology Branch, DTP, NCI, 2025)

System: 695427-040-R-J1-PDC complex spheroids, viability percent T/C
Test: Anticancer human tumor 695427-040-R-J1-PDC patient-derived colon adenocarcinoma cell line growth inhibition [GQUAD]
Conditions: for IC50: curve of first compound; for viability, T/C: stronger effect = lower value; active means viability on the fitted dose curve at most 10% of control; inactive means the rest
Text: DNA G-quadruplex Stabilizer Agents in Combinations in Complex Spheroids
A high-throughput screen of multi-cell type tumor spheroids was designed to identify active combinations of DNA G-quadruplex stabilizer agents and targeted small molecules. Complex spheroids include a stromal component modeled by human endothelial cells (HUVEC) and fibroblasts modeled by human mesenchymal stem cells (MSCs). The concentration ranges selected for each drug and investigational agent were based upon clinically achievable concentrations if the clinical Cmax of the agent was known.
Compounds. The drugs and investigational agents: pidnarulex (CX-5461; NSC782164), APTO-253 (NSC789042), BRACO-19 (NSC847499), peposertib (NSC802822), ceralasertib (NSC780249), elimusertib (NSC800525), camonsertib (NSC841442), AZD-1390 (NSC803789), olaparib (NSC753686), talazoparib (NSC767125), ART-558 (NSC835418), sotorasib (NSC818433), MRTX-1133 (NSC836407), SN-38 (NSC673596), topotecan (NSC609699), etoposide (NSC141540), doxorubicin (NSC123127), gemcitabine (NSC613327), 5-fluorouracil (NSC19893), paclitaxel (NSC125973), vemurafenib (NSC761431), panobinostat (NSC761190), R-306465 (JNJ-16241199; NSC773264), adavosertib (NSC754352), TP-3654 (NSC805149), carboplatin (NSC241240), KSQ-4279 (NSC840948), and staurosporine (NSC755774) were obtained from the National Cancer Institute (NCI) Developmental Therapeutics Program Chemical Repository (34). The FDA-approved anticancer drug set is available from the NCI Developmental Therapeutics Program. […] The stock solutions were prepared in dimethyl sulfoxide (DMSO, Sigma-Aldrich, St. Louis, MO, cat. D2650) at 800-fold the tested concentration and stored at -70 degrees C prior to their use. All drugs and investigational agents were tested over a range starting from a high concentration at or near the clinical Cmax and decreasing in half-log increments. If the clinical Cmax for an agent had not been determined, the highest concentration tested was 10 microM.
2.3 Cell Culture. All cells were maintained in an incubator at 37 degrees C and 5% CO2 with 95% humidity. The PDC lines were cultured according to standard operating procedures established by the NCI PDMR. All PDCs were thawed and cultured in Matrigel-coated flasks prepared with a working solution of 1X Ham's F-12 nutrient mix, without supplementation (Invitrogen, cat. 11765054), 100 U/mL penicillin-streptomycin (Invitrogen, cat. 15140122), and 2.5% Matrigel (Corning Inc., cat. 354248) for the first three passages. The 857933-349-R-J2-PDC line was cultured in 6C/Colon 1B media, which includes advanced DMEM/F-12 (Thermo Fisher Scientific, cat. 12634028), 10 mM HEPES (Thermo Fisher Scientific, cat. 15630080), 1X GlutaMAX supplement (Thermo Fisher Scientific, cat. 35050061), 0.1 mg/mL primocin (InvivoGen, cat. ant-pm-2), 10% defined fetal bovine serum, heat inactivated (HyClone Laboratories Inc., cat. SH30070.03HI), 50% L-WRN conditioned media (ATCC, cat. CRL-3276), 1.25 mM N-Acetyl-L-cysteine (Sigma-Aldrich, cat. A9165), 10 mM nicotinamide (Sigma-Aldrich, cat. N0636), 1X B-27 supplement (Thermo Fisher Scientific, cat. 17504044), 1X N-2 supplement (Thermo Fisher Scientific, cat. 17502048), 10 microM Y-27632 dihydrochloride (Tocris Bioscience, cat. 1254), and 50 ng/mL human EGF recombinant protein (Thermo Fisher Scientific, cat. PHG0311). The 485176-168-R4-J1-PDC line was cultured in Panc media, which includes all 6C/Colon 1B media components plus 100 ng/mL human FGF-10 (Thermo Fisher Scientific, cat. 100-26), 500 nM SB-431542 (Selleckchem, cat. S1067), and gastrin (Tocris, cat. 3006).
[…]

[1] = second compound 0.0316 µM, first compound 0.0316 µM
[2] = second compound 0.0316 µM, first compound 0.316 µM
[3] = second compound 0.1 µM, first compound 0.0316 µM
[4] = second compound 0.1 µM, first compound 0.316 µM
[5] = second compound 0.316 µM, first compound 0.0316 µM
[6] = second compound 0.316 µM, first compound 0.316 µM
[7] = second compound 1 µM, first compound 0.0316 µM
[8] = second compound 1 µM, first compound 0.316 µM
[9] = second compound 3.16 µM, first compound 0.0316 µM
[10] = second compound 3.16 µM, first compound 0.316 µM
[11] = second compound 10 µM, first compound 0.0316 µM
[12] = second compound 10 µM, first compound 0.316 µM
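Further: spheroids exposed to compounds for seven days before readout.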

CCc1c2c(nc3ccc(O)cc13)-c1cc3c(c(=O)n1C2)COC(=O)[C@]3(O)CC + CN(C)c1ccc(Nc2c3ccc(NC(=O)CCN4CCCC4)cc3nc3cc(NC(=O)CCN4CCCC4)ccc23)cc1
0.252 µM: IC50 (second compound 10 µM)
> 0.316 µM: IC50 (second compound 0.0316 µM) | IC50 (second compound 0.1 µM) | IC50 (second compound 0.316 µM) | IC50 (second compound 1 µM)
inactive: viability, T/C (second compound 0.0316 µM, first compound 0.000999 µM) 104% | viability, T/C (second compound 0.0316 µM, first compound 0.00316 µM) 94.5% | viability, T/C (second compound 0.0316 µM, first compound 0.00999 µM) 93.3% | viability, T/C [1] 74.7% | viability, T/C (second compound 0.0316 µM, first compound 0.0999 µM) 70.8% | viability, T/C [2] 51.3% | viability, T/C (second compound 0.1 µM, first compound 0.000999 µM) 108% | viability, T/C (second compound 0.1 µM, first compound 0.00316 µM) 90.2% | viability, T/C (second compound 0.1 µM, first compound 0.00999 µM) 85.4% | viability, T/C [3] 73.2% | viability, T/C (second compound 0.1 µM, first compound 0.0999 µM) 68.5% | viability, T/C [4] 53.2% | viability, T/C (second compound 0.316 µM, first compound 0.000999 µM) 103% | viability, T/C (second compound 0.316 µM, first compound 0.00316 µM) 94% | viability, T/C (second compound 0.316 µM, first compound 0.00999 µM) 84% | viability, T/C [5] 75% | viability, T/C (second compound 0.316 µM, first compound 0.0999 µM) 64.2% | viability, T/C [6] 49.6% | viability, T/C (second compound 1 µM, first compound 0.000999 µM) 99.2% | viability, T/C (second compound 1 µM, first compound 0.00316 µM) 89.3% | viability, T/C (second compound 1 µM, first compound 0.00999 µM) 82.1% | viability, T/C [7] 76.1% | viability, T/C (second compound 1 µM, first compound 0.0999 µM) 66.8% | viability, T/C [8] 51% | viability, T/C (second compound 3.16 µM, first compound 0.000999 µM) 94.2% | viability, T/C (second compound 3.16 µM, first compound 0.00316 µM) 97.8% | viability, T/C (second compound 3.16 µM, first compound 0.00999 µM) 85.7% | viability, T/C [9] 76.5% | viability, T/C (second compound 3.16 µM, first compound 0.0999 µM) 64.2% | viability, T/C [10] 46.2% | viability, T/C (second compound 10 µM, first compound 0.000999 µM) 90.2% | viability, T/C (second compound 10 µM, first compound 0.00316 µM) 88% | viability, T/C (second compound 10 µM, first compound 0.00999 µM) 71.9% | viability, T/C [11] 69.2% | viability, T/C (second compound 10 µM, first compound 0.0999 µM) 60.7% | viability, T/C [12] 46.3%
0.247 µM: IC50 (second compound 3.16 µM)

COc1ccc([C@@H](O)c2cc(-c3ncnc4cc(N5CCOCC5)ccc34)c(F)cc2Cl)nn1 + CN(C)c1ccc(Nc2c3ccc(NC(=O)CCN4CCCC4)cc3nc3cc(NC(=O)CCN4CCCC4)ccc23)cc1
8.39 µM: IC50 (second compound 0.0316 µM)
8.02 µM: IC50 (second compound 1 µM)
> 10 µM: IC50 (second compound 0.1 µM)
inactive: viability, T/C [1] 97.4% | viability, T/C (second compound 0.0316 µM, first compound 0.1 µM) 98.5% | viability, T/C [2] 94.6% | viability, T/C (second compound 0.0316 µM, first compound 1 µM) 87.2% | viability, T/C (second compound 0.0316 µM, first compound 3.16 µM) 67.2% | viability, T/C (second compound 0.0316 µM, first compound 10 µM) 46.9% | viability, T/C [3] 99.3% | viability, T/C (second compound 0.1 µM, first compound 0.1 µM) 101% | viability, T/C [4] 89.4% | viability, T/C (second compound 0.1 µM, first compound 1 µM) 81.2% | viability, T/C (second compound 0.1 µM, first compound 3.16 µM) 72.9% | viability, T/C (second compound 0.1 µM, first compound 10 µM) 50% | viability, T/C [5] 97.2% | viability, T/C (second compound 0.316 µM, first compound 0.1 µM) 96.7% | viability, T/C [6] 89.3% | viability, T/C (second compound 0.316 µM, first compound 1 µM) 82.3% | viability, T/C (second compound 0.316 µM, first compound 3.16 µM) 68.5% | viability, T/C (second compound 0.316 µM, first compound 10 µM) 49.3% | viability, T/C [7] 93.6% | viability, T/C (second compound 1 µM, first compound 0.1 µM) 103% | viability, T/C [8] 100% | viability, T/C (second compound 1 µM, first compound 1 µM) 79% | viability, T/C (second compound 1 µM, first compound 3.16 µM) 74.3% | viability, T/C (second compound 1 µM, first compound 10 µM) 44.4% | viability, T/C [9] 102% | viability, T/C (second compound 3.16 µM, first compound 0.1 µM) 96.4% | viability, T/C [10] 98.7% | viability, T/C (second compound 3.16 µM, first compound 1 µM) 83.3% | viability, T/C (second compound 3.16 µM, first compound 3.16 µM) 68.4% | viability, T/C (second compound 3.16 µM, first compound 10 µM) 46.3% | viability, T/C [11] 88.8% | viability, T/C (second compound 10 µM, first compound 0.1 µM) 77.3% | viability, T/C [12] 90.5% | viability, T/C (second compound 10 µM, first compound 1 µM) 72.8% | viability, T/C (second compound 10 µM, first compound 3.16 µM) 63.8% | viability, T/C (second compound 10 µM, first compound 10 µM) 44%
8.26 µM: IC50 (second compound 3.16 µM)
6.96 µM: IC50 (second compound 10 µM)
9.75 µM: IC50 (second compound 0.316 µM)
